Key:
Assay in all cases: Checkerboard/MIC assay with rifampicin
Format in all cases: cell-based
[1] = test system: Klebsiella pneumoniae (NCTC 13438)
From the text: (§1) The 17 test strains/isolates were: (1) Serratia marcescens (ATCC 13880); (2) Salmonella typhimurium (ATCC 13311); (3) Salmonella choleraesuis (ATCC 10708); (4) Acinetobacter baumannii (ATCC BAA-1605); (5) A. baumannii (ATCC 17978); (6) A. baumannii (FDA-CDC AR-BANK#0088); (7) Citrobacter freundii (ATCC 8090); (8) Pseudomonas aeruginosa (BCCM 27647); (9) P. aeruginosa (BCCM 27648); (10) Escherichia coli (ATCC 25922); (11) E. coli (ATCC 10536); (12) Stenotrophomonas maltophilia (ATCC 13637); (13) Enterobacter cloacae (ATCC BAA-1143); (14) E. cloacae (ATCC 13047); (15) E. aerogenes (ATCC 13048); (16) Klebsiella pneumoniae (NCTC 13438); and (17) Klebsiella pneumoniae (FDA-CDC AR-BANK#0160). These bacterial strains were obtained from the American Type Culture Collection (ATCC, Rockville, MD, USA); Belgian Coordinated Collections of Microorganisms; The Culture Collections of Public Health England, UK; and FDA-CDC anticimrobial Resistance Isolate Bank, USA, and cryopreserved as single-use frozen working stock cultures which were stored at −80° C.
(§2) The 17 test strains were grown on nutrient agar or tryptic soy agar (TSA) medium as below. Colonies were suspended in phosphate buffered saline (PBS) pH 7.4. The absorbance of the bacterial suspension was measured with a spectrophotometer at OD620nm, and then the suspension was adjusted to 1-2×10^8 CFU/mL in PBS. The adjusted suspension was further diluted 1:500 in cation-adjusted Mueller-Hinton Broth. Each well contained approximately 5×10^5 CFU/mL. […] The testing inoculum was prepared within minutes before adding to wells of the test plate.
(§3) Compound 3 was tested in 8 points by two-fold serial titrations from 100 to 0.78 μg/mL. […] Assay plates were incubated and MIC endpoints were read as complete inhibition of visual growth. The checkerboard combination analysis was performed following the MIC testing protocol to identify potential synergistic, indifferent or antagonistic interactions. The analysis also included each test substance alone at the same concentration ranges.
(§4) FIC (Fraction Inhibitory Concentration) and FIC Index (FICI) values for each test condition and the average of FICI values of all pairwise combinations were calculated to determine if synergy or antagonism existed between the two substances. The FIC index was determined by calculating the sum of the ratios of MICs (minimum inhibitory concentrations) for both substances. […] Synergy is defined as the FICI (Σ)≤0.5; additivity or indifference are defined as the FICI (Σ)>0.5 to ≤4; antagonism is defined as the FICI (Σ)>4. The two fold of highest test article concentration was used for FIC value calculations in the circumstances where MIC values were greater than the highest test article concentration.

[2] = test system: Escherichia coli (ATCC 25922)
From the text: as §1, §2, §3, §4

[3] = test system: Salmonella typhimurium (ATCC 13311); conditions: Salmonella typhimurium ATCC13311
From the text: as §1, §2, §3, §4

[4] = test system: Serratia marcescens (ATCC 13880)
From the text: as §1, §2, §3, §4

[5] = test system: E. cloacae (ATCC 13047); conditions: Enterobacter cloacae ATCC-13047
From the text: as §1, §2, §3, §4

[6] = test system: E. coli (ATCC 10536); conditions: Escherichia coli ATCC 10536
From the text: as §1, §2, §3, §4

[7] = test system: Acinetobacter baumannii (ATCC BAA-1605); conditions: Acinetobacter baumannii BAA-1605
From the text: as §1, §2, §3, §4

[8] = test system: Salmonella choleraesuis (ATCC 10708); conditions: Salmonella choleraesuis ATCC 10708
From the text: as §1, §2, §3, §4

[9] = test system: Stenotrophomonas maltophilia (ATCC 13637)
From the text: as §1, §2, §3, §4

[10] = test system: Klebsiella pneumoniae (FDA-CDC AR-BANK#0160); conditions: Klebsiella pneumoniae AR-BANK#0160
From the text: as §1, §2, §3, §4

[11] = test system: Citrobacter freundii (ATCC 8090)
From the text: as §1, §2, §3, §4

[12] = test system: E. aerogenes (ATCC 13048); conditions: Enterobacter aerogenes ATCC-13048
From the text: as §1, §2, §3, §4

[13] = test system: Pseudomonas aeruginosa (BCCM 27647); conditions: Pseudomonas aeruginosa BCCM27647
From the text: as §1, §2, §3, §4

[14] = test system: Enterobacter cloacae (ATCC BAA-1143); conditions: Enterobacter cloacae BAA-1143
From the text: as §1, §2, §3, §4

[15] = test system: P. aeruginosa (BCCM 27648); conditions: Pseudomonas aeruginosa BCCM27648
From the text: as §1, §2, §3, §4

[16] = compound 3 in combination with rifampicin

## N=C(N)c1ccc(CC[C@H]2CCC[C@@H](CCc3ccc(C(=N)N)cc3)C2)cc1 [Compound 3, 4,4′-(2,2′-((1R,3S)-cyclohexane-1,3-diyl)bis(ethane-2,1-diyl))dibenzimidamide]
[1]; NCTC13438, substance alone
  MIC: 50 mg/L
[1]; [16]
  Combination Result: synergy (Synergy is defined as the FICI (Σ)≤0.5)
  FICI (Average): 0.22
[2]; ATCC25922, substance alone
  MIC: 6.25 mg/L
[2]; [16]
  Combination Result: additivity/
  FICI (Average): 0.52
[3]; Salmonella enterica, substance alone
  MIC: 12.5 mg/L
[3]; [16]
  Combination Result: synergy (Synergy is defined as the FICI (Σ)≤0.5)
  FICI (Average): 0.34
[4]; ATCC13880, substance alone
  MIC: > 100 mg/L
[4]; [16]
  Combination Result: synergy (Synergy is defined as the FICI (Σ)≤0.5)
  FICI (Average): 0.21
[5]; ATCC13047, substance alone
  MIC: 100 mg/L
[5]; [16]
  Combination Result: synergy (Synergy is defined as the FICI (Σ)≤0.5)
  FICI (Average): 0.19
[6]; ATCC10536, substance alone
  MIC: 6.25 mg/L
[6]; [16]
  Combination Result: synergy (Synergy is defined as the FICI (Σ)≤0.5)
  FICI (Average): 0.48
[7]; [16]
  Combination Result: synergy (Synergy is defined as the FICI (Σ)≤0.5)
  FICI (Average): 0.31
[7]; substance alone
  MIC: 25 mg/L
[8]; Salmonella enterica, substance alone, read-out: MIC
  MIC: 50 mg/L
[8]; [16]
  Combination Result: synergy (Synergy is defined as the FICI (Σ)≤0.5)
  FICI (Average): 0.32
[9]; ATCC13637, substance alone
  MIC: 12.5 mg/L
[9]; [16]
  Combination Result: synergy (Synergy is defined as the FICI (Σ)≤0.5)
  FICI (Average): 0.39
[10]; [16]
  Combination Result: synergy (Synergy is defined as the FICI (Σ)≤0.5)
  FICI (Average): 0.19
[10]; substance alone
  MIC: 100 mg/L
[11]; ATCC8090, substance alone
  MIC: 100 mg/L
[11]; [16]
  Combination Result: synergy (Synergy is defined as the FICI (Σ)≤0.5)
  FICI (Average): 0.19
[12]; Klebsiella aerogenes, ATCC13048, substance alone
  MIC: 100 mg/L
[12]; [16]
  Combination Result: synergy (Synergy is defined as the FICI (Σ)≤0.5)
  FICI (Average): 0.19
[13]; [16]
  Combination Result: additivity/
  FICI (Average): 1.03
[13]; substance alone
  MIC: 25 mg/L
[14]; [16]
  Combination Result: synergy (Synergy is defined as the FICI (Σ)≤0.5)
  FICI (Average): 0.19
[14]; substance alone
  MIC: 100 mg/L
[15]; [16]
  Combination Result: additivity/
  FICI (Average): 1.03
[15]; substance alone
  MIC: 25 mg/L
